Experimental data as given in US5138069A (E. I. Du Pont de Nemours and Company, priority 1988, dated 1992).
Where two headings read alike, the source gives them in different places.

How the values were obtained:
[1] = biological target: AII receptor; test: Angiotensin II receptor binding (displacement of 3H-AII); conditions: read-out: Angiotensin II Receptor Binding IC50, rat adrenal cortical microsomes, 2 nM 3H-AII, 1 hour, room temperature
Method: The assay was carried out according to the method described by [Glossmann et al., J. Biol. Chem., 249, 825 (1974)], but with some modifications. The reaction mixture contained rat adrenal cortical microsomes (source of AII receptor) in Tris buffer and 2 nM of ^3 H-AII with or without potential AII antagonist. This mixture was incubated for 1 hour at room temperature and the reaction was subsequently terminated by rapid filtration and rinsing through glass micro-fibre filter. Receptor-bound ^3 H-AII trapped in filter was quantitated by scintillation counting.
(§1) Compounds listed in Table 26 were tested in the same manner as described for Table 25, except that in the test for antihypertensive effects in renal hypertensive rats, the compounds were administered orally at 30 mg/kg and intravenously at 3 mg/kg.

[2] = test system: Renal Hypertensive Rats; test: Antihypertensive effects in renal hypertensive rats; format: in vivo; conditions: Rattus norvegicus; for minimal effective dose at 100 mg/kg / minimal effective dose at 10 mg/kg: Table 25; for minimal effective dose at 100 mg/kg / minimal effective dose at 30 mg/kg: oral; for minimal effective dose at 100 mg/kg: 100 mg/kg or less; for minimal effective dose at 10 mg/kg / minimal effective dose at 3 mg/kg: intravenous; for minimal effective dose at 10 mg/kg: 10 mg/kg or less; for minimal effective dose at 3 mg/kg / minimal effective dose at 30 mg/kg: Table 26
Method: This procedure increases blood pressure by increasing renin production with consequent elevation of AII levels. Compounds are administered orally at 100 mg/kg and/or intravenously via a cannula in the jugular vein at 10 mg/kg. Arterial blood pressure is continuously measured directly through a carotid artery cannula and recorded using a pressure transducer and a polygraph. Blood pressure levels after treatment are compared to pretreatment levels to determine the antihypertensive effects of the compounds (See Table 25).
as §1

[3] = Table 25, tested as sodium salt

## CCCCc1nc(Cl)c(CC(C)C(=O)N[C@H](C)c2ccccc2)n1Cc1ccc(NC(=O)c2ccccc2C(=O)O)cc1 (single isomer, unassigned) [Example 239, d and l 3-[1-(4-(2-Carboxybenzamido)benzyl-2-butyl-4-chloroimidazol-5-yl]-2-methylpropanoic acid, d-(+)-α-methylbenzylamide]
[1]; Table 25
  IC50: 120 nM

## CCCCc1nc(Cl)c(CC(=O)OC)n1Cc1ccc(NC(=O)/C=C\C(=O)O)cc1 [Example 6]
[1]; Table 25
  IC50: 5700 nM

## CCCCc1nc(Cl)c(CC(=O)OC)n1Cc1ccc(NC(=O)c2cc3ccccc3cc2C(=O)O)cc1 [Example 9]
[1]; [3]
  IC50: 5800 nM

## CCCCc1nc(Cl)c(COC(C)=O)n1Cc1ccc(NC(=O)c2ccccc2C(=O)O)cc1 [Example 10]
[1]; [3]
  IC50: 190 nM

## CCCCc1nc(Cl)c(COC(C)=O)n1Cc1ccc(C(=O)O)cc1 [Example 20, 5-Acetoxymethyl-2-butyl-1-(4-carboxybenzyl)-4-chloroimidazole]
[1]; [3]
  IC50: 5300 nM

## CCCCc1nc(Cl)c(CC(=O)O)n1Cc1ccc(NS(=O)(=O)C(F)(F)F)cc1 [Example 25]
[1]; Table 25
  IC50: 3900 nM

## CCCCc1nc(Cl)c(CO)n1Cc1ccc(N2C(=O)c3ccccc3C2=O)cc1 [Example 28, 2-Butyl-4-chloro-5-hydroxymethyl-1-(4-N-phthalimidobenzyl)imidazole]
[1]; Table 25
  IC50: 8000 nM

## CCCCc1nc(Cl)c(CC(=O)O)n1Cc1ccc(NC(=O)c2ccccc2NS(=O)(=O)C(F)(F)F)cc1 [Example 31, 2-Butyl-4-chloro-1-[4-((N-trifluoromethanesulfonyl)anthranilamido)benzyl]imidazole-5-acetic acid]
[1]; Table 25
  IC50: 640 nM

## CCCCc1nc(Cl)c(CC(=O)O)n1Cc1ccc(NC(=O)c2ccccc2C(=O)O)cc1 [Example 32, 2-Butyl-1-[4-(2-carboxybenzamido)-benzyl]-4-chloroimidazole-5-acetic acid]
[1]; [3]
  IC50: 430 nM

## CCCCc1nc(Cl)c(CC(=O)OC)n1Cc1ccc(NC(=O)c2cccc(NS(=O)(=O)C(F)(F)F)c2)cc1 [Example 33]
[1]; Table 25
  IC50: 940 nM

## CCCCc1nc(Cl)c(Cc2nn[nH]n2)n1Cc1ccc(NC(=O)c2ccccc2NS(=O)(=O)C(F)(F)F)cc1 [Example 52]
[1]; Table 25
  IC50: 1100 nM

## COCCc1nc(Cl)c(CO)n1Cc1ccc(NC(=O)c2ccccc2NS(=O)(=O)C(F)(F)F)cc1 [Example 56, 4-Chloro-5-hydroxymethyl-2-(2-methoxyethyl)-1-[4-((N-trifluoromethanesulfonyl)anthranilamido)benzyl]imidazole]
[1]; Table 25
  IC50: 4400 nM

## CCCCCc1nccn1Cc1ccc(NC(=O)c2ccccc2NS(=O)(=O)C(F)(F)F)cc1 [Example 60]
[1]; Table 25
  IC50: 1200 nM

## O=C(Nc1ccc(Cn2ccnc2CC2CCCCC2)cc1)c1ccccc1NS(=O)(=O)C(F)(F)F [Example 61]
[1]; Table 25
  IC50: 5000 nM

## CCc1nccn1Cc1ccc(NC(=O)c2ccccc2C(=O)O)cc1 [Example 62]
[1]; [3]
  IC50: 9200 nM

## O=C(O)c1ccccc1C(=O)Nc1ccc(Cn2ccnc2CC2CCCCC2)cc1 [Example 71]
[1]; Table 25
  IC50: 2800 nM

## CCCCc1nc(Cl)c(COC)n1Cc1ccc(C(=O)N[C@@H](Cc2ccccc2)C(=O)O)cc1 [Example 82]
[1]; Table 25
  IC50: 6100 nM

## CCCCc1nc(Cl)c(COC)n1Cc1ccc(C(=O)N2CCC[C@H]2C(=O)O)cc1 [Example 83]
[1]; Table 25
  IC50: 6400 nM

## CCc1nc(Cl)c(CO)n1Cc1ccc(-c2ccccc2C(=O)O)cc1 [Example 107]
[1]; Table 25
  IC50: 1700 nM

## CCCc1nc(Cl)c(CO)n1Cc1ccc(-c2ccccc2-c2nn[nH]n2)cc1 [Example 113]
[1]; Table 25
  IC50: 20 nM

## CCCc1nc(C(F)(F)C(F)(F)F)c(CO)n1Cc1ccc(-c2ccccc2-c2nn[nH]n2)cc1 [Example 124F]
[1]; Table 26
  IC50: 1 nM

## CCC=Cc1nc(Cl)c(CO)n1Cc1ccc(-c2ccccc2-c2nnn[nH]2)cc1 [Example 139]
[1]; Table 26
  IC50: 11 nM

## CCCCc1nc(Cl)c(COC(C)=O)n1Cc1ccc(OCc2ccccc2C(=O)O)cc1 [Example 199]
[2]
  minimal effective dose at 100 mg/kg: > 100 mg/kg

## CCCCc1nc(Cl)c(CO)n1Cc1ccc(C(=O)c2ccccc2C(=O)O)cc1 [Example 202, 2-Butyl-1-[4-(2-Carboxybenzoyl)benzyl]-4-chloro-5-(hydroxymethyl)imidazole]
[2]; tested as sodium salt
  minimal effective dose at 10 mg/kg: < 10 mg/kg
  minimal effective dose at 100 mg/kg: > 100 mg/kg

## CCCCc1nc(CO)c(Cl)n1Cc1ccc(C(=O)c2ccccc2C(=O)O)cc1 [Example 203]
[2]; tested as sodium salt
  minimal effective dose at 10 mg/kg: < 10 mg/kg
  minimal effective dose at 100 mg/kg: < 100 mg/kg

## CCCCc1nc(Cl)c(Cn2ccnc2)n1Cc1ccc(C(=O)c2ccccc2C(=O)O)cc1 [Example 205]
[1]; [3]
  IC50: 2500 nM

## CCCCc1nc(Cl)c(CN=[N+]=[N-])n1Cc1ccc(C(=O)c2ccccc2C(=O)O)cc1 [Example 206]
[1]; [3]
  IC50: 1400 nM

## CCCCc1nc(Cl)c(COC)n1Cc1ccc(C(=O)c2ccccc2C(=O)O)cc1 [Example 207]
[2]; tested as sodium salt
  minimal effective dose at 10 mg/kg: < 10 mg/kg
  minimal effective dose at 100 mg/kg: < 100 mg/kg

## CCCCc1nc(Cl)c(CNS(=O)(=O)C(F)(F)F)n1Cc1ccc(C(=O)c2ccccc2C(=O)O)cc1 [Example 217, 2-Butyl-1-[4-(2-carboxybenzoyl)benzyl]-4-chloro-5-[(trifluoromethylsulfonamido)methyl]imidazole]
[1]; [3]
  IC50: 2700 nM

## CCCCc1nc(Cl)c(/C=C/C(=O)OCC)n1Cc1ccc(NC(=O)c2ccccc2C(=O)O)cc1 [Example 228, 3-[2-Butyl-4-chloro-1-(4-(2-carboxybenzamido)benzyl)imidazol-5-yl]-propenoic acid ethyl ester, E isomer]
[1]; Table 25
  IC50: 530 nM

## CCCCc1nc(Cl)c(/C=C/COC(C)=O)n1Cc1ccc(NC(=O)c2ccccc2C(=O)O)cc1 [Example 231, 3-[2-Butyl-4-chloro-1-(4-(2-carboxybenzamido)benzyl)imidazol-5-yl]-3-propen-1-ol acetate, E isomer]
[1]; Table 25
  IC50: 76 nM

## CCCCc1nc(Cl)c(/C=C/CO)n1Cc1ccc(NC(=O)c2ccccc2C(=O)O)cc1 [Example 241]
[1]; Table 25
  IC50: 170 nM

## CCCCc1nc(Cl)c(/C=C/C(C)O)n1Cc1ccc(NC(=O)c2ccccc2C(=O)O)cc1 (stereo not shown) [Example 243]
[1]; Table 25
  IC50: 200 nM

## CCCCc1nc(Cl)c(CCCOC(C)=O)n1Cc1ccc(NC(=O)c2ccccc2C(=O)O)cc1 [Example 247]
[1]; Table 25
  IC50: 110 nM

## CCCCc1nc(Cl)c(C(=O)O)n1Cc1ccc(-c2ccccc2-c2nn[nH]n2)cc1 [Example 252]
[2]
  minimal effective dose at 3 mg/kg: < 3 mg/kg
  minimal effective dose at 30 mg/kg: < 30 mg/kg

## CCCc1nc(C(F)(F)C(F)(F)F)c(C(=O)O)n1Cc1ccc(-c2ccccc2-c2nn[nH]n2)cc1 [Example 265C]
[2]
  minimal effective dose at 3 mg/kg: < 3 mg/kg

## CCCCc1nc(Cl)c(CO)n1Cc1ccc(-c2ccccc2C(=O)NS(=O)(=O)c2ccccc2)cc1 [Example 318, 1-[(2'-(Benzenesulfonamidocarbonyl)biphenyl-4-yl)methyl]-2-butyl-4-chloro-5-hydroxymethylimidazole]
[2]
  minimal effective dose at 10 mg/kg: < 10 mg/kg
  minimal effective dose at 100 mg/kg: > 100 mg/kg

## CCCc1nc(-c2ccccc2)c(C=O)n1Cc1ccc(-c2ccccc2C(=O)O)cc1 [Example 322]
[2]
  minimal effective dose at 3 mg/kg: < 3 mg/kg
  minimal effective dose at 30 mg/kg: < 30 mg/kg

## CCCCc1nc(CO)c(Cl)n1Cc1ccc(-c2ccccc2-c2n[nH]c(C(F)(F)F)n2)cc1 [Example 341, 2-n-Butyl-5-chloro-4-hydroxy-methyl-1-[(2'-(5-trifluoromethyl-1,2,4-triazol-3-yl)biphenyl-4-yl)methyl]imidazole]
[2]
  minimal effective dose at 10 mg/kg: < 10 mg/kg
  minimal effective dose at 100 mg/kg: < 100 mg/kg
